Data as given in BindingDB's records for doi:10.1016/j.bmc.2013.10.018 (Baylor College of Medicine, 2014).

Assays:
[1] = target: T1, Signal transducer and activator of transcription 3 (Homo sapiens, UniProt P40763); assay: Inhibition of Stat3 phosphorylation in human PANC1 cells by Western blotting analysis in normoxia condition
[2] = target: T1, Signal transducer and activator of transcription 3; assay: Inhibition of Stat3 phosphorylation in human MDA-MB-468 cells by Western blotting analysis in hypoxia condition
[3] = target: T1, Signal transducer and activator of transcription 3; assay: Inhibition of Stat3 phosphorylation in human OVCAR3 cells by Western blotting analysis in normoxia condition
[4] = target: T1, Signal transducer and activator of transcription 3; assay: Inhibition of Stat3 phosphorylation in human MDA-MB-231 cells by Western blotting analysis in hypoxia condition
[5] = target: T2, Hypoxia-inducible factor 1-alpha (Homo sapiens, UniProt Q16665); assay: Inhibition of HIF-1 alpha in human OVCAR3 cells by Western blotting analysis in hypoxia condition
T2 sequence (Q16665 whole entry): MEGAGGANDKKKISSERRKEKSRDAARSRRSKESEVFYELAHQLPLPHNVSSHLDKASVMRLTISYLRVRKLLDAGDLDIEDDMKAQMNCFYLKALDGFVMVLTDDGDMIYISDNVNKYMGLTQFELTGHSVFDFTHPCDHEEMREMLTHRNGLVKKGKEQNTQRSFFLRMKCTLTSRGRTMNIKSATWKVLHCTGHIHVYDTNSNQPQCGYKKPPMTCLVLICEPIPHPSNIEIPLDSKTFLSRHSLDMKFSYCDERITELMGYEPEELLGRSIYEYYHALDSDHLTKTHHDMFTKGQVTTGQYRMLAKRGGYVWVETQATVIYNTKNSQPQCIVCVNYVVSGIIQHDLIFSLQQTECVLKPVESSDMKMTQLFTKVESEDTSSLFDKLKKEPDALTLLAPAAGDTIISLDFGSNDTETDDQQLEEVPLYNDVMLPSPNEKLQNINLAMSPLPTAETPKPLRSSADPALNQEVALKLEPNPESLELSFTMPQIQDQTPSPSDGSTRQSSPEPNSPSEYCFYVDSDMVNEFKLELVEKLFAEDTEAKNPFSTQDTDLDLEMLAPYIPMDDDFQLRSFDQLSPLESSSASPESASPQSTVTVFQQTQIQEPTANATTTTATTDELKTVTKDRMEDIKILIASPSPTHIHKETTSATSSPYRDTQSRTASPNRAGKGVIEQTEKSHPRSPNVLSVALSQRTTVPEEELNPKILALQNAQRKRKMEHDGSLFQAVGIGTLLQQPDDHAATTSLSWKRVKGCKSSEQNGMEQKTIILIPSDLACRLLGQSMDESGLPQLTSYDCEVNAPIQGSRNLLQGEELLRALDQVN

[6] = target: T2, Hypoxia-inducible factor 1-alpha; assay: Inhibition of HIF-1 alpha in human MDA-MB-231 cells by Western blotting analysis in hypoxia condition
[7] = target: T1, Signal transducer and activator of transcription 3; assay: Inhibition of Stat3 phosphorylation in human PANC1 cells by Western blotting analysis in hypoxia condition
[8] = target: T2, Hypoxia-inducible factor 1-alpha; assay: Inhibition of HIF-1 alpha in human PANC1 cells by Western blotting analysis in hypoxia condition
[9] = target: T1, Signal transducer and activator of transcription 3; assay: Inhibition of Stat3 phosphorylation in human MDA-MB-231 cells by Western blotting analysis in normoxia condition
[10] = target: T2, Hypoxia-inducible factor 1-alpha; assay: Inhibition of HIF-1 alpha in human MDA-MB-468 cells by Western blotting analysis in hypoxia condition
[11] = target: T1, Signal transducer and activator of transcription 3; assay: Inhibition of Stat3 phosphorylation in human OVCAR3 cells by Western blotting analysis in hypoxia condition
[12] = target: T1, Signal transducer and activator of transcription 3; assay: Inhibition of Stat3 phosphorylation in human MDA-MB-468 cells by Western blotting analysis in normoxia condition

T1 sequence (P40763 whole entry): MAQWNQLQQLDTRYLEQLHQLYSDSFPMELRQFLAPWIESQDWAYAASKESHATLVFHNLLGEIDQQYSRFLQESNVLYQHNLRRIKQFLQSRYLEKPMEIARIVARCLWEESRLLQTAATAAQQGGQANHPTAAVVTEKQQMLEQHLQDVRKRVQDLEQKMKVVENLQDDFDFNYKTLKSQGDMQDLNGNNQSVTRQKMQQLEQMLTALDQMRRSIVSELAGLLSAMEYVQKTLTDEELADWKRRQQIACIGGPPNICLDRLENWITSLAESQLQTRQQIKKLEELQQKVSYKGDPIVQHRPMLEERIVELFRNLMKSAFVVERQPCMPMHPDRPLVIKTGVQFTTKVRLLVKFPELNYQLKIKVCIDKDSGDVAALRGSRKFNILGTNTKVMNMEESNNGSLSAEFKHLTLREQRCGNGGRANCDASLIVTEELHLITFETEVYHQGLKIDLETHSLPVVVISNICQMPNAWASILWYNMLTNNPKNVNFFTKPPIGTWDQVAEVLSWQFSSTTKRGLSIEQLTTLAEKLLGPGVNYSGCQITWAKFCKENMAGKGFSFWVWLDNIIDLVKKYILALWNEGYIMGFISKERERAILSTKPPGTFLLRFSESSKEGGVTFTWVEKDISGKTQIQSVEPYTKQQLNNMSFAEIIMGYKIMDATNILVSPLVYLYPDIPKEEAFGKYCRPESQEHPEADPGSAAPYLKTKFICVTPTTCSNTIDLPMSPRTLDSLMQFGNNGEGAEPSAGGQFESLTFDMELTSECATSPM

- IC50 [1]: 4.5 µM
- IC50 [2]: 4.5 µM
- IC50 [3]: 4.5 µM
- IC50 [4]: 4.5 µM
- IC50 [5]: 3 µM
- IC50 [6]: 3 µM
- IC50 [7]: 4.5 µM
- IC50 [8]: 3 µM
- IC50 [9]: 4.5 µM
- IC50 [10]: 3 µM
- IC50 [11]: 4.5 µM
- IC50 [12]: 4.5 µM
SMILES: CN(C)CCCN1C(=O)c2ccc3c4ccc5c6c(ccc(c7ccc(c2c37)C1=O)c64)C(=O)N(CCCN(C)C)C5=O
